Experimental findings from patent publication US20110160196A1, “FACTOR XA INHIBITORS” (Millennium Pharmaceuticals, Inc., priority 2007, published 2011) are described below.

Where only a bound is given, the exact number is not on record here.

T1 sequence (P00742 235-488 limits assumed): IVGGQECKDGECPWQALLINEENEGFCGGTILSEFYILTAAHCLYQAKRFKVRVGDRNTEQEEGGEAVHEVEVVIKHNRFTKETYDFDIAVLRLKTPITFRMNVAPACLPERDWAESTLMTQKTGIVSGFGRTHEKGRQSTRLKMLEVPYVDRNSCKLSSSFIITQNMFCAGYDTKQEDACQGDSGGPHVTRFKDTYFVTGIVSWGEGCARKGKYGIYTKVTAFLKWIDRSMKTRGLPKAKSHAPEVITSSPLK
T1 sequence (P00742 41-179 partner limits assumed): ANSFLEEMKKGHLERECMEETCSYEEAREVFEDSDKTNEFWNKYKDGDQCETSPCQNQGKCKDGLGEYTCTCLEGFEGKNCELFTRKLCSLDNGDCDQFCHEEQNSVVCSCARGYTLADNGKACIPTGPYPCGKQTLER

This experiment addresses T1, human plasma protein factor Xa (Homo sapiens, UniProt P00742).
T1 construct: The human plasma protein factor Xa was purchased; purchased Haematologic Technologies (Essex Junction, Vt.); host or cells: human plasma
Kind of experiment: Factor Xa IC50 determination (cleavage of paranitroanilide substrate S-2765). Type of experiment: biochemical. As to conditions: factor Xa 1 nM, S-2765 100 μM, Tris buffered saline pH 7.4, read at 405 nm. In a few lines: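 Human plasma factor Xa (1 nM) preincubated 5 min at room temperature with inhibitor (0.01 nM–10 μM) in Tris-buffered saline pH 7.4 with 5 mM CaCl2, 0.1% BSA, 5% DMSO. S-2765 added at 100 μM final; pNA release followed at 405 nm for 2 min. IC50 from four-parameter fit of initial velocities.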
For the molecule `Cn1ccnc1COc1cc(-n2ccccc2=O)ccc1-n1cc(CNC(=O)c2ccc(Cl)s2)nn1` [Compound 176, 5-Chloro-N-((1-(2-((1-methyl-1H-imidazol-2-yl)methoxy)-4-(2-oxopyridin-1(2H)-yl)phenyl)-1H-1,2,3-triazol-4-yl)methyl)thiophene-2-carboxamide], the IC50 was ≤ 100 nM. For `NCCNc1cc(-n2ccccc2=O)ccc1-n1cc(CNC(=O)c2ccc(Cl)s2)nn1` [Compound 30, N-((1-(2-(2-Aminoethylamino)-4-(2-oxopyridin-1(2H)-yl)phenyl)-1H-1,2,3-triazol-4-yl)methyl)-5-chlorothiophene-2-carboxamide] the value was ≤ 100 nM; for `NC1CCN(c2cc(-n3ccccc3=O)ccc2-n2cc(CNC(=O)c3ccc(Cl)s3)nn2)CC1` [Compound 17, N-((1-(2-(4-Aminopiperidin-1-yl)-4-(2-oxopyridin-1(2H)-yl)phenyl)-1H-1,2,3-triazol-4-yl)methyl)-5-chlorothiophene-2-carboxamide], ≤ 100 nM; for `O=C(NCc1cn(-c2ccc(N3CCCCC3=O)cc2N2CCS(=O)(=O)CC2)nn1)c1ccc(Cl)s1` [Compound 158, 5-Chloro-N-((1-(4-(2-oxopiperidin-1-yl)-2-((1,1-dioxo)thiomorpholino)phenyl)-1H-1,2,3-triazol-4-yl)methyl)thiophene-2-carboxamide], ≤ 100 nM.

For `O=C(NCc1cn(-c2ccc(-n3ccccc3=O)cc2OCc2ccc3ccccc3n2)nn1)c1ccc(Cl)s1` [Compound 170, 5-Chloro-N-((1-(4-(2-oxopyridin-1(2H)-yl)-2-(quinolin-2-ylmethoxy)phenyl)-1H-1,2,3-triazol-4-yl)methyl)thiophene-2-carboxamide], the IC50 was ≤ 100 nM. The result for `O=C(O)COc1cc(-n2ccccc2=O)ccc1-n1cc(CNC(=O)c2ccc(Cl)s2)nn1` [Compound 96, 2-(2-(4-((2-Chlorothiophene-5-carboxamido)methyl)-1H-1,2,3-triazol-1-yl)-5-(2-oxopyridin-1(2H)-yl)phenoxy)acetic acid] reads 100 to 500 nM; that for `O=C(NCc1cn(-c2ccc(-n3ccccc3=O)cc2-c2ccnc(Cl)c2)nn1)c1ccc(Cl)s1` [Compound 133, 5-Chloro-N-((1-(2-(2-chloropyridin-4-yl)-4-(2-oxopyridin-1(2H)-yl)phenyl)-1H-1,2,3-triazol-4-yl)methyl)thiophene-2-carboxamide], ≤ 100 nM; that for `CS(=O)(=O)CCCOc1cc(-n2ccccc2=O)ccc1-n1cc(CNC(=O)c2ccc(Cl)s2)nn1` [Compound 83, 5-Chloro-N-((1-(2-(3-(methylsulfonyl)propoxy)-4-(2-oxopyridin-1(2H)-yl)phenyl)-1H-1,2,3-triazol-4-yl)methyl)thiophene-2-carboxamide], ≤ 100 nM. For `O=C(NCc1cn(-c2ccc(-n3ccccc3=O)cc2OC2CCNCC2)nn1)c1ccc(Cl)s1` [Compound 57, 5-Chloro-N-((1-(4-(2-oxopyridin-1(2H)-yl)-2-(piperidin-4-yloxy)phenyl)-1H-1,2,3-triazol-4-yl)methyl)thiophene-2-carboxamide] the value was ≤ 100 nM; for `O=C1CN(C(=O)c2cc(-n3ccccc3=O)ccc2-n2cc(CNC(=O)c3ccc(Cl)s3)nn2)CCN1` [Compound 114, 5-Chloro-N-((1-(2-(2-oxopiperazine-4-carbonyl)-4-(2-oxopyridin-1(2H)-yl)phenyl)-1H-1,2,3-triazol-4-yl)methyl)thiophene-2-carboxamide], ≤ 100 nM; for `O=C(NCc1cn(-c2ccc(-n3ccccc3=O)cc2OCCc2ccncc2)nn1)c1ccc(Cl)s1` [Compound 91, 5-Chloro-N-((1-(4-(2-oxopyridin-1(2H)-yl)-2-(2-(pyridin-4-yl)ethoxy)phenyl)-1H-1,2,3-triazol-4-yl)methyl)thiophene-2-carboxamide], ≤ 100 nM.

As for `O=C1CN(Cc2cc(-n3ccccc3=O)ccc2-n2cc(CNC(=O)c3ccc(Cl)s3)nn2)CCN1` [Compound 161, 5-Chloro-N-((1-(2-((3-oxopiperazin-1-yl)methyl)-4-(2-oxopyridin-1(2H)-yl)phenyl)-1H-1,2,3-triazol-4-yl)methyl)thiophene-2-carboxamide], the IC50 was ≤ 100 nM. For `O=C(NCc1cn(-c2ccc(-n3ccccc3=O)cc2OCCN2CCCC2)nn1)c1ccc(Cl)s1` [Compound 88, 5-Chloro-N-((1-(4-(2-oxopyridin-1(2H)-yl)-2-(2-(pyrrolidin-1-yl)ethoxy)phenyl)-1H-1,2,3-triazol-4-yl)methyl)thiophene-2-carboxamide] the value was ≤ 100 nM. In the case of `NCc1cc(-n2ccccc2=O)ccc1-n1cc(CNC(=O)c2ccc(Cl)s2)nn1` [Compound 120, N-((1-(2-(Aminomethyl)-4-(2-oxopyridin-1(2H)-yl)phenyl)-1H-1,2,3-triazol-4-yl)methyl)-5-chlorothiophene-2-carboxamide], the IC50 is ≤ 100 nM. For `O=C(NCc1cn(-c2ccc(-n3ccccc3=O)cc2Oc2cccnc2)nn1)c1ccc(Cl)s1` [Compound 64, 5-Chloro-N-((1-(4-(2-oxopyridin-1(2H)-yl)-2-(pyridin-3-yloxy)phenyl)-1H-1,2,3-triazol-4-yl)methyl)thiophene-2-carboxamide] the value was ≤ 100 nM; for `O=C(NCc1cn(-c2ccc(-n3ccccc3=O)cc2OCc2ccccn2)nn1)c1ccc(Cl)s1` [Compound 169, 5-Chloro-N-((1-(4-(2-oxopyridin-1(2H)-yl)-2-(pyridin-2-ylmethoxy)phenyl)-1H-1,2,3-triazol-4-yl)methyl)thiophene-2-carboxamide], ≤ 100 nM. For `COCCNC(=O)c1cc(-n2ccccc2=O)ccc1-n1cc(CNC(=O)c2ccc(Cl)s2)nn1` [Compound 106, N-((1-(2-((2-Methoxyethyl)carbamoyl)-4-(2-oxopyridin-1(2H)-yl)phenyl)-1H-1,2,3-triazol-4-yl)methyl)-5-chlorothiophene-2-carboxamide] the value was 100 to 500 nM; for `O=C(NCc1nnn(-c2ccc(-n3ccccc3=O)cc2OC[C@@H](O)CO)c1I)c1ccc(Cl)s1` [Compound 155, 5-Chloro-N-((1-(2-((S)-2,3-dihydroxypropoxy)-4-(2-oxopyridin-1(2H)-yl)phenyl)-5-iodo-1H-1,2,3-triazol-4-yl)methyl)thiophene-2-carboxamide], ≤ 100 nM. As to `O=C(NCc1cn(-c2ccc(-n3ccccc3=O)cc2OCCN2CCOCC2)nn1)c1ccc(Cl)s1` [Compound 90, 5-Chloro-N-((1-(2-(2-morpholinoethoxy)-4-(2-oxopyridin-1(2H)-yl)phenyl)-1H-1,2,3-triazol-4-yl)methyl)thiophene-2-carboxamide], the IC50 was ≤ 100 nM.

For the molecule `O=C1CN(c2cc(-n3ccccc3=O)ccc2-n2cc(CNC(=O)c3ccc(Cl)s3)nn2)CCN1` [Compound 6, 5-Chloro-N-((1-(2-(3-oxopiperazin-1-yl)-4-(2-oxopyridin-1(2H)-yl)phenyl)-1H-1,2,3-triazol-4-yl)methyl)thiophene-2-carboxamide], the IC50 is ≤ 100 nM. For `NC(=O)N1CCN(c2cc(-n3ccccc3=O)ccc2-n2cc(CNC(=O)c3ccc(Cl)s3)nn2)CC1` [Compound 15, 4-(2-(4-((2-Chlorothiophene-5-carboxamido)methyl)-1H-1,2,3-triazol-1-yl)-5-(2-oxopyridin-1(2H)-yl)phenyl)piperazine-1-carboxamide] the value was ≤ 100 nM.

The term IC50 denotes the concentration that gives 50% inhibition. The low end stands for higher potency, the high end for lower potency.
